≈ marks a conversion by molar mass, not a printed value. Calls of active or inactive are those of the source. No cut-off for these calls is given here.
How the values were obtained:
[1] = system: Mycobacterium tuberculosis; assay: Antituberculosis activity against Mycobacterium tuberculosis H37Rv; assay type: functional, organism-based
[2] = Cytotoxicity against African green monkey Vero cells; assay type: toxicity, cell-based; settings: African green monkey (Chlorocebus sabaeus)
[3] = Selectivity index, ratio of EC50 for african green monkey Vero cells to IC90 for Mycobacterium tuberculosis H37Rv; assay type: toxicity; settings: read-out: Selectivity Index
[4] = system: Mycobacterium tuberculosis; assay: Antituberculosis activity against Mycobacterium tuberculosis H37Rv infected in macrophage assessed as reduction in bacterial load at 2 times IC90 incubated for 3 days; assay type: functional, organism-based; settings: time 3.0 day
[5] = system: Mycobacterium tuberculosis; assay: Antituberculosis activity against Mycobacterium tuberculosis H37Rv infected in macrophage assessed as reduction in bacterial load at 10 times IC90 incubated for 3 days; assay type: functional, organism-based; settings: time 3.0 day
BMDM = assay: Cytotoxicity against mouse BMDMs at 2 to 10 times MIC incubated for 24 hrs by MTS assay; assay type: toxicity, cell-based
[6] = Biodistribution in C57BL/6 mouse liver at 25 mg/kg, po administered as single dose and measured after 2 hrs by HPLC based UV-Visble detector method; assay type: ADME, organism-based; settings: read-out: Drug uptake
[7] = Biodistribution in C57BL/6 mouse liver at 25 mg/kg, po administered as single dose and measured after 6 hrs by HPLC based UV-Visble detector method; assay type: ADME, organism-based; settings: read-out: Drug uptake
[8] = Biodistribution in C57BL/6 mouse liver at 25 mg/kg, po administered as single dose and measured after 24 hrs by HPLC based UV-Visble detector method; assay type: ADME, organism-based; settings: in vivo
[9] = Biodistribution in C57BL/6 mouse lung at 25 mg/kg, po administered as single dose and measured after 24 hrs by HPLC based UV-Visble detector method; assay type: ADME, organism-based; settings: read-out: Drug uptake
[10] = Biodistribution in C57BL/6 mouse lung at 25 mg/kg, po administered as single dose and measured after 48 hrs by HPLC based UV-Visble detector method; assay type: ADME, organism-based; settings: read-out: Drug uptake
[11] = Biodistribution in C57BL/6 mouse blood at 25 mg/kg, po administered as single dose and measured after 2 hrs by HPLC based UV-Visble detector method; assay type: ADME, organism-based; settings: read-out: Drug uptake
[12] = Biodistribution in C57BL/6 mouse blood at 25 mg/kg, po administered as single dose and measured after 6 hrs by HPLC based UV-Visble detector method; assay type: ADME, organism-based; settings: read-out: Drug uptake
[13] = system: Mycobacterium tuberculosis; assay: Antimycobacterial activity against Mycobacterium tuberculosis H37Rv infected in C57BL/6 mouse assessed as reduction in liver bacterial burden at 25 mg/kg, po pre-infected for 24 hrs followed by compound addition for 6 days per week and measured on day 18; assay type: functional, organism-based; settings: time 18.0 day
[14] = system: Mycobacterium tuberculosis; assay: Antimycobacterial activity against Mycobacterium tuberculosis H37Rv infected in C57BL/6 mouse assessed as reduction in lung bacterial burden at 25 mg/kg, po pre-infected for 24 hrs followed by compound addition for 6 days per week and measured on day 18 and 36; assay type: functional, organism-based; settings: time 18-36 day

SMILES | IC50 [1] [µg/mL] | IC90 [1] [µg/mL] | also measured
CCOc1ccc(-c2nc(C(N)=O)c3ncn(-c4ccccc4)c3n2)cc1 | 1.44 (≈ 4.01 µM) | 1.65 (≈ 4.59 µM) | EC50 [2]: 12.9 µg/mL (≈ 35.9 µM); selectivity ratio [3]: 7.85
CN(C)c1ccc(-c2nc(C(N)=O)c3ncn(-c4ccccc4)c3n2)cc1 | 1.38 (≈ 3.85 µM) | 1.67 (≈ 4.66 µM) | EC50 [2]: > 40 µg/mL; selectivity ratio [3]: > 23.9
COc1ccc(-c2nc(C(N)=O)c3ncn(-c4ccccc4)c3n2)cc1 | < 0.1 | < 0.19 | EC50 [2]: > 30 µg/mL; selectivity ratio [3]: > 154; Activity [4]: Active; Activity [5]: Active; Activity (BMDM): Non-Toxic; concentration at 2 h [6]: 4800 ng/g; concentration at 6 h [7]: 1460 ng/g; Drug uptake [8]: Not Active; concentration at 24 h [9]: 4030 ng/g; concentration at 48 h [10]: 1210 ng/g; concentration at 2 h [11]: 630 ng/g; concentration at 6 h [12]: 2160 ng/g; Activity [13]: Active; Activity [14]: Active
COc1ccc2cc(-c3nc(C(N)=O)c4ncn(-c5ccccc5)c4n3)ccc2c1 | > 100 | > 100 | –
COc1ccc(-n2cnc3c(C(N)=O)nc(-c4cccc(O)c4)nc32)cc1 | > 100 | > 100 | –
CC(C)(C)Oc1ccc(-c2nc(C(N)=O)c3ncn(-c4ccccc4)c3n2)cc1 | > 100 | > 100 | –
NC(=O)c1nc(-c2ccc(Oc3ccc(Cl)cc3)cc2)nc2c1ncn2-c1ccccc1 | 2.69 (≈ 6.09 µM) | 3.09 (≈ 6.99 µM) | EC50 [2]: 12.7 µg/mL (≈ 28.7 µM); selectivity ratio [3]: 4.11
Cc1ccc(-n2cnc3c(C(N)=O)nc(-c4cccc(O)c4)nc32)cc1 | > 100 | > 100 | –
N#Cc1ccc(-n2cnc3c(C(N)=O)nc(-c4ccccc4O)nc32)cc1 | > 100 | > 100 | –
COc1ccc(-c2nc(C(N)=O)c3ncn(-c4ccccc4)c3n2)c2ccccc12 | > 100 | > 100 | –
NC(=O)c1nc(-c2ccc(N3CCOCC3)cc2)nc2c1ncn2-c1ccccc1 | > 100 | > 100 | –
COc1ccc(-n2cnc3c(C(N)=O)nc(-c4ccccc4O)nc32)cc1 | > 100 | > 100 | –
NC(=O)c1nc(-c2ccc(O)cc2)nc2c1ncn2-c1ccccc1 | 0.7 (≈ 2.11 µM) | 1.2 (≈ 3.62 µM) | EC50 [2]: > 30 µg/mL; selectivity ratio [3]: > 25.5
N#Cc1ccc(-n2cnc3c(C(N)=O)nc(-c4cccc(O)c4)nc32)cc1 | 38.5 (≈ 108 µM) | > 100 | –
NC(=O)c1nc(-c2ccc(C(F)(F)F)cc2)nc2c1ncn2-c1ccccc1 | > 100 | > 100 | –
Cn1cnc2c(C(N)=O)nc(-c3ccccc3O)nc21 | > 100 | > 100 | –
NC(=O)c1nc(-c2ccc(OC(F)(F)F)cc2)nc2c1ncn2-c1ccccc1 | > 100 | > 100 | –
CCc1ccc(-c2nc(C(N)=O)c3ncn(-c4ccccc4)c3n2)cc1 | > 100 | > 100 | –
NC(=O)c1nc(-c2ccccc2O)nc2c1ncn2-c1ccccc1 | > 100 | > 100 | –
COc1ccc(-n2cnc3c(C(N)=O)nc(-c4ccc(O)cc4)nc32)cc1 | > 100 | > 100 | –
NC(=O)c1nc(-c2ccccc2O)nc2c1ncn2Cc1ccccc1 | > 100 | > 100 | –
Cc1ccc(-n2cnc3c(C(N)=O)nc(-c4ccc(O)cc4)nc32)cc1 | 19.2 (≈ 55.6 µM) | > 100 | –
Cc1ccc(-n2cnc3c(C(N)=O)nc(-c4ccccc4O)nc32)cc1 | > 100 | > 100 | –
Cn1cnc2c(C(N)=O)nc(-c3cccc(O)c3)nc21 | > 100 | > 100 | –
Cn1cnc2c(C(N)=O)nc(-c3ccc(O)cc3)nc21 | 25.8 (≈ 95.8 µM) | 47.8 (≈ 178 µM) | –
N#Cc1ccc(-n2cnc3c(C(N)=O)nc(-c4ccc(O)cc4)nc32)cc1 | > 100 | > 100 | –
NC(=O)c1nc(-c2ccc(O)cc2)nc2c1ncn2Cc1ccccc1 | > 100 | > 100 | –
NC(=O)c1nc(-c2cccc(O)c2)nc2c1ncn2-c1ccccc1 | > 100 | > 100 | –
